≈ marks a conversion by molar mass, not a printed value.
What was measured:
P388 = assay: In vivo cytotoxicity against mouse P388 cells at 0.4 to 12.5 mg/kg; format: functional; details: dose mg/kg 0.4-12.5
KB = assay: Cytotoxicity against human KB cells; format: functional; details: read-out: ED50 (the source's name)

COc1cc2cc(c1Cl)NC(=O)C[C@H](OC(=O)[C@H](C)N(C)C(=O)C1C(C)C1C)[C@]1(C)O[C@H]1[C@H](C)[C@@H]1C[C@@](O)(NC(=O)O1)[C@H](OC)/C=C/C=C(\C)C2 (some centres not stated) [NORMAYTANCYPRINE]
T/C (P388): 145%
EC50 (KB): 0.001 ng/mL (≈ 0.00137 nM)
